This assay relates to P388 leukemia ip, CD2F1 mice, survival T/C. Put plainly: NCI In Vivo Anticancer Drug Screen. Data for tumor model P388 Leukemia (intraperitoneal) in CD2F1 (CDF1) mice. The note with it: endpoint: median survival time, higher = longer survival. A digest of the protocol:
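Mice carrying the transplanted tumor received test compound or vehicle. Survival was recorded in each group, and the value is the treated-group measurement divided by that of the vehicle-treated control group.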

Setting [1] is: dose: 50.0 mg/kg/injection, schedule: Q04DX003 (ip), vehicle: saline with Tween-80.
[2] abbreviates: dose: 100.0 mg/kg/injection, schedule: Q04DX003 (ip), vehicle: saline with Tween-80.
The mark [3] stands for this setting: dose: 200.0 mg/kg/injection, schedule: Q04DX003 (ip), vehicle: saline with Tween-80.
The mark [4] stands for this setting: dose: 50.0 mg/kg/injection, schedule: Q01DX009 (ip), vehicle: saline with Tween-80.
The mark [5] stands for this setting: dose: 100.0 mg/kg/injection, schedule: Q01DX009 (ip), vehicle: saline with Tween-80.
Where [6] appears, read: dose: 60.0 mg/kg/injection, schedule: Q01DX005 (ip), vehicle: saline with Tween-80.
Where [7] appears, read: dose: 120.0 mg/kg/injection, schedule: Q01DX005 (ip), vehicle: saline with Tween-80.
Setting [8] is: dose: 240.0 mg/kg/injection, schedule: Q01DX005 (ip), vehicle: saline with Tween-80.

Where “and” joins values, the source holds several entries; their conditions need not be identical. Equal entries are not always repeated. Toxic doses and inconclusive results are not listed.

Consider `COc1cccc2c1C(=O)c1c(O)c3c(c(O)c1C2=O)C[C@@](O)(/C(C)=N\NC(=O)CO)C[C@@H]3OC1CC(N)C(O)C(C)O1` (some centres undefined), for which the T/C was 118 % of control (dose: 0.29 mg/kg/injection, schedule: Q04DX003 (ip), vehicle: saline); 153 % of control (dose: 0.78 mg/kg/injection, schedule: Q01DX009 (ip), vehicle: water); 152 % of control (dose: 1.0 mg/kg/injection, schedule: Q01DX009 (ip), vehicle: saline); 150 % of control (dose: 1.0 mg/kg/injection, schedule: Q04DX003 (ip), vehicle: saline); 150 % of control (dose: 1.32 mg/kg/injection, schedule: Q04DX003 (ip), vehicle: saline); 154 % of control (dose: 1.5 mg/kg/injection, schedule: Q01DX009 (ip), vehicle: saline). Moreover, the T/C was 160 % of control (dose: 1.56 mg/kg/injection, schedule: Q01DX009 (ip), vehicle: water); 166 % of control (dose: 2.0 mg/kg/injection, schedule: Q01DX009 (ip), vehicle: water); 154 % of control (dose: 2.0 mg/kg/injection, schedule: Q04DX003 (ip), vehicle: saline); 189 % of control (dose: 2.25 mg/kg/injection, schedule: Q01DX009 (ip), vehicle: saline); 119 % of control (dose: 2.5 mg/kg/injection, schedule: Q04DX003 (ip), vehicle: water); 177 % of control (dose: 3.0 mg/kg/injection, schedule: Q04DX003 (ip), vehicle: saline). Moreover, the T/C by setting is: (dose: 3.13 mg/kg/injection, schedule: Q01DX009 (ip), vehicle: water) 180 % of control; (dose: 4.0 mg/kg/injection, schedule: Q01DX009 (ip), vehicle: water) 192 % of control; (dose: 5.0 mg/kg/injection, schedule: Q04DX003 (ip), vehicle: water) 119 % of control; (dose: 6.25 mg/kg/injection, schedule: Q01DX009 (ip), vehicle: water) 108 % of control; (dose: 40.0 mg/kg/injection, schedule: Q04DX003 (ip), vehicle: water) 90 % of control; (dose: 80.0 mg/kg/injection, schedule: Q04DX003 (ip), vehicle: water) 90 % of control and 96 % of control.

Consider `[CH3][Sn]([CH3])([S]c1nc(O)cc(=O)[nH]1)[S]c1nc(O)cc(=O)[nH]1`, for which the T/C by setting is: (dose: 12.5 mg/kg/injection, schedule: Q01DX005 (ip), vehicle: Klucel (hydroxypropylcellulose) (HPC)) 105 % of control and 108 % of control; (dose: 25.0 mg/kg/injection, schedule: Q01DX005 (ip), vehicle: Klucel (hydroxypropylcellulose) (HPC)) 96 % of control; (dose: 50.0 mg/kg/injection, schedule: Q01DX005 (ip), vehicle: Klucel (hydroxypropylcellulose) (HPC)) 117 % of control and 88 % of control and 89 % of control.

In the case of `CC(CC(=O)c1ccccc1)=Nc1ccccc1`, the T/C reads like this: (dose: 100.0 mg/kg/injection, schedule: Q01DX001 (ip), vehicle: saline sonified) 110 % of control; (dose: 200.0 mg/kg/injection, schedule: Q01DX001 (ip), vehicle: saline sonified) 100 % of control; (dose: 400.0 mg/kg/injection, schedule: Q01DX001 (ip), vehicle: saline sonified) 100 % of control.

For `Cc1ccc2c(c1)CCCN2C=O`, the T/C under setting [1] was 105 % of control, the T/C under setting [2] is 100 % of control and the T/C under setting [3] was 110 % of control.

Consider `NC1=NC(=S)C2N=C(N=Nc3ccc(C(=O)NC(CCC(=O)O)C(=O)O)cc3)N=C2N1` (centres undefined), for which the T/C reads like this: (dose: 0.19 mg/kg/injection, schedule: Q01DX009 (ip), vehicle: Klucel (hydroxypropylcellulose) (HPC)) 108 % of control and 120 % of control; (dose: 3.0 mg/kg/injection, schedule: Q01DX009 (ip), vehicle: Klucel (hydroxypropylcellulose) (HPC)) 156 % of control.

As to `c1cc(-c2nnc3ccccn23)c2c(-c3nnc4ccccn34)cccc2c1`, the T/C under setting [4] is 100 % of control; the T/C under setting [5] is 97 % of control; the T/C (dose: 200.0 mg/kg/injection, schedule: Q01DX009 (ip), vehicle: saline with Tween-80) was 97 % of control.

In the case of `[Fe]=[Se]`, the T/C is, setting by setting: under setting [6], 96 % of control; under setting [7], 86 % of control; under setting [8], 107 % of control.

For `Cc1cc2cc(O)c3c(=O)c4c(O)cccc4c(=O)c3c2c(=O)c1=O`, the T/C was 101 % of control (dose: 3.12 mg/kg/injection, schedule: Q01DX005 (ip), vehicle: other); 107 % of control (dose: 6.25 mg/kg/injection, schedule: Q01DX005 (ip), vehicle: other); 100 % of control (dose: 12.5 mg/kg/injection, schedule: Q01DX005 (ip), vehicle: other); 104 % of control (dose: 25.0 mg/kg/injection, schedule: Q01DX005 (ip), vehicle: other).

On to `COc1ccc(CC2C(=O)NC(C)C(=O)N(C)C3Cc4ccc(cc4)Oc4cc(ccc4OC(C)=O)CC(C(=O)NC(C)C(=O)NC(C)C(=O)N2C)N(C)C3=O)cc1` (centres undefined), for which the T/C (dose: 2.0 mg/kg/injection, schedule: Q01DX009 (ip), vehicle: none) is 167 % of control.

`C=CCC(NC(C)=O)C(=O)O` (centres undefined): the T/C was 88 % of control (dose: 25.0 mg/kg/injection, schedule: Q01DX009 (ip), vehicle: saline); 101 % of control (dose: 50.0 mg/kg/injection, schedule: Q01DX009 (ip), vehicle: saline); 93 % of control (dose: 100.0 mg/kg/injection, schedule: Q01DX009 (ip), vehicle: saline).

Take `C/C(=N\NC(=S)N1CCN(c2ccccn2)CC1)c1ccccn1`: the T/C reads like this: (dose: 12.5 mg/kg/injection, schedule: Q01DX005 (ip), vehicle: water) 103 % of control; (dose: 25.0 mg/kg/injection, schedule: Q01DX005 (ip), vehicle: water) 108 % of control.

As to `O/N=C(/Cc1nc2cc(Cl)c(Cl)cc2nc1C/C(=N/O)c1ccc(Cl)cc1)c1ccc(Cl)cc1`, the T/C was 99 % of control under setting [6], 99 % of control under setting [7] and 107 % of control under setting [8].

Consider `Cc1cc2nnc(C)n2c(C)n1`, for which the T/C is 95 % of control (dose: 100.0 mg/kg/injection, schedule: Q04DX003 (ip), vehicle: saline); 96 % of control (dose: 200.0 mg/kg/injection, schedule: Q04DX003 (ip), vehicle: saline); 93 % of control (dose: 400.0 mg/kg/injection, schedule: Q04DX003 (ip), vehicle: saline).

Take `NC(=O)Nc1ccc(/C=C\c2ccnc3ccccc23)cc1`: the T/C reads like this: (dose: 25.0 mg/kg/injection, schedule: Q04DX003 (ip), vehicle: saline with Tween-80) 96 % of control; under setting [1], 93 % of control; under setting [2], 89 % of control.

`Oc1ccc2ccccc2c1-c1c(OC(c2ccccc2)c2ccccc2)ccc2ccccc12`: the T/C by setting is: under setting [2], 102 % of control; under setting [3], 94 % of control; (dose: 400.0 mg/kg/injection, schedule: Q04DX003 (ip), vehicle: saline with Tween-80) 102 % of control.

`Cc1cccc(OCC(O)CNC(C)(C)C)c1C` (centres undefined): the T/C is, setting by setting: (dose: 12.5 mg/kg/injection, schedule: Q01DX009 (ip), vehicle: saline with Tween-80) 99 % of control; (dose: 25.0 mg/kg/injection, schedule: Q01DX009 (ip), vehicle: saline with Tween-80) 98 % of control; under setting [4], 99 % of control; under setting [5], 99 % of control.

For `C=Cn1c([N+](=O)[O-])cnc1/C=C/c1ccc(C(=O)OCCN(CC)CC)cc1`, the T/C was 99 % of control (dose: 100.0 mg/kg/injection, schedule: Q04DX002 (ip), vehicle: Klucel (hydroxypropylcellulose) (HPC)) and 103 % of control (dose: 200.0 mg/kg/injection, schedule: Q04DX002 (ip), vehicle: Klucel (hydroxypropylcellulose) (HPC)).

Take `COc1ccc2ccccc2c1CC(C)O` (centres undefined): the T/C is, setting by setting: (dose: 50.0 mg/kg/injection, schedule: Q01DX005 (ip), vehicle: saline with Tween-80) 101 % of control; (dose: 100.0 mg/kg/injection, schedule: Q01DX005 (ip), vehicle: saline with Tween-80) 98 % of control; (dose: 200.0 mg/kg/injection, schedule: Q01DX005 (ip), vehicle: saline with Tween-80) 102 % of control.

With `COc1ccc(C2OC(=N)C(=S)N2C)cc1O` (centres undefined), the T/C by setting is: (dose: 60.0 mg/kg/injection, schedule: Q01DX005 (ip), vehicle: Klucel (hydroxypropylcellulose) (HPC)) 112 % of control; (dose: 120.0 mg/kg/injection, schedule: Q01DX005 (ip), vehicle: Klucel (hydroxypropylcellulose) (HPC)) 109 % of control; (dose: 240.0 mg/kg/injection, schedule: Q01DX005 (ip), vehicle: Klucel (hydroxypropylcellulose) (HPC)) 112 % of control.

Source of the values: PubChem BioAssay AID330 (DTP/NCI, 2004).
